# According to patent US8357659B2, “Method of treating pain or itching with APETx2 peptide toxin” (priority 2008, dated 2013):
# How the values were obtained:
# [1] = tested on: ASIC type current of cutaneous neurons of the spinal ganglia; assay: Whole cell patch clamp of native ASIC currents in cutaneous neurons of the spinal ganglia; type: cell-based, rat; details: pH 6.6; FIG. 1C
# Method: The neurons of the dorsal root ganglion (spinal ganglia or DRG) innervating the skin were labelled by subcutaneous injections of 5×1 μl of Dil fluorescent dye (5% DMSO, Molecular Probes) in the dorsal side of the rats' hind paws. The dye was injected two weeks before the rats were sacrificed in order to prepare a primary culture of dorsal root ganglion.
# The lumbar dorsal root ganglia L3-L6 of Wistar rats (8-11 weeks) were dissected bilaterally and separated enzymatically with 0.1% collagenase. The cells were subsequently plated on 35 mm Petri dishes covered with collagen and cultured at 37° C. (95% air/5% CO2) in DMEM medium containing 5% of foetal calf serum. The electrophysiological experiments were performed 1 to 8 days after seeding.
# The whole cell configuration of the patch clamp method was used ([ref. 48]) in order to measure the membrane currents (imposed voltage) or the membrane potentials (imposed current). The recordings were performed at ambient temperature using an RK-400 amplifier (Bio-Logic Science Instruments) with a 3 kHz low-pass filter (Krohn-Hite). The data were sampled at 10 kHz, digitised using a Digidata 1322A A-D/D-A converter (Axon Instruments) and recorded on a hard disk using pClamp software (version 9.2.0.11, Axon Instruments). The recording probes (1-4 MOhms) contained (in mM): 135 KCl, 2.5 Na2-ATP, 2 MgCl2, 2.1 CaCl2, 5 EGTA, 10 HEPES (pH 7.25 with KOH). Various different buffers and drugs of interest were added to the transfected cells considered individually using an internally developed microinfusion system controlled by microelectrovalves (Sirai, Italy) allowing rapid changes of solution. The control bath solution contained (in mM): 145 NaCl, 5 KCl, 2 MgCl2, 2 CaCl2, 10 HEPES (pH 7.4 with NaOH). The MES medium was used instead of the HEPES medium in order to buffer the solution at a pH ranging from 6 to 5, and the ASIC currents were induced by rapid changes of a control solution at pH 7.4 to an acid test solution using the microinfusion system. For the experiments conducted on the DRG neurons, glucose (10 mM) was added to the control bath solution. Hypertonic conditions were obtained by adding mannitol or sucrose to the external bath solutions, as indicated in the text.
# ASIC3 = biological target: T1, ASIC3 (Rattus norvegicus, UniProt O35240); details: cited from earlier work
# T1 sequence (O35240 1-533): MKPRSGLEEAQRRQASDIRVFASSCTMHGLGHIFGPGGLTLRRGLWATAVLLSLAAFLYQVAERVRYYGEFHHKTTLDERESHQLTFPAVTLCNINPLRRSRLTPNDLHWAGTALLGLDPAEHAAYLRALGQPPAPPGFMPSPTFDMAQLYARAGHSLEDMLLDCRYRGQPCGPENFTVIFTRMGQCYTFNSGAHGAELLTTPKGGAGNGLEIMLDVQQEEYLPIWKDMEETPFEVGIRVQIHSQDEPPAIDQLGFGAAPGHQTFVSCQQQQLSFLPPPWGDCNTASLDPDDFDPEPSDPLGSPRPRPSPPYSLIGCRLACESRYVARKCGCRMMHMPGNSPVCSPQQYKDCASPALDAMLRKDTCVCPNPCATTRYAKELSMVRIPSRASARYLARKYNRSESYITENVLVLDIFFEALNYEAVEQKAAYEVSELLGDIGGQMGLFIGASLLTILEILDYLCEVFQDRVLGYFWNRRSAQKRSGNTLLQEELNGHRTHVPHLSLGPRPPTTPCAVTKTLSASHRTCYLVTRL
# ASIC1b = biological target: T2, ASIC1b (Rattus norvegicus, UniProt P55926); details: cited from earlier work
# T2 sequence (P55926 1-559 isoform P55926-3): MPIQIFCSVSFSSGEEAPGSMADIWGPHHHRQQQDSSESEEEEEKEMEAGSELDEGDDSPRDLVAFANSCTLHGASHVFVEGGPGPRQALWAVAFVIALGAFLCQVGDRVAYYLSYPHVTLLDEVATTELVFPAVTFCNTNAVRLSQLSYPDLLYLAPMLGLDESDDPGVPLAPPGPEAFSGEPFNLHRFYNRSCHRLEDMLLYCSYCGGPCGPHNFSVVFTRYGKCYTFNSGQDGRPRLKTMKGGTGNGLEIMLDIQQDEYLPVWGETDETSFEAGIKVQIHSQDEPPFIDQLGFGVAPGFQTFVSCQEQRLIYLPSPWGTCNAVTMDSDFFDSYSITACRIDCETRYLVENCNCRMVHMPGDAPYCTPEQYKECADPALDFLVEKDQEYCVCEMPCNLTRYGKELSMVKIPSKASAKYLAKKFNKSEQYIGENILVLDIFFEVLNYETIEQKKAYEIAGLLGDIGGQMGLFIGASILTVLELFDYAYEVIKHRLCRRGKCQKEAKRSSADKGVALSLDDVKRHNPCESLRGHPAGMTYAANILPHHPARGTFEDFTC
# heteromer ASIC2a+3 = biological target: T3, heteromer ASIC2a+3 (Rattus norvegicus, UniProt O35240+Q62962); details: cited from earlier work
# T3 sequence (Q62962 1-512): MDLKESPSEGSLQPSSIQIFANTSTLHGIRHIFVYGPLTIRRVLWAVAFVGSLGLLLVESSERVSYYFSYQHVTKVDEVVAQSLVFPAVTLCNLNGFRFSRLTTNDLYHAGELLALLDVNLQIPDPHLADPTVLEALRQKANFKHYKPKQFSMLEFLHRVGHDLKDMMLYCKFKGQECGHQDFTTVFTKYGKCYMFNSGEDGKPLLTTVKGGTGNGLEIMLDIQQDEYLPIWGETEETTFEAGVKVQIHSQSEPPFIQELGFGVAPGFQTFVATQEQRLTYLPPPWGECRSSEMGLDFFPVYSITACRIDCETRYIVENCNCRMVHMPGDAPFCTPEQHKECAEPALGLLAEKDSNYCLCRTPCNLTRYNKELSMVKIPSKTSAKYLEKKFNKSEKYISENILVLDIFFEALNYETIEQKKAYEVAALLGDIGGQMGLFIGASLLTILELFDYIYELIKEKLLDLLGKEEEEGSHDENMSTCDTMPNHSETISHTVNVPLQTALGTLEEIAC
# T3 sequence (O35240 1-533): T1 sequence (O35240 1-533)
substance,measurement,setting,value
"peptide of 42 amino acids (SEQ ID NO: 3), three disulphide bonds, from sea anemone Anthopleura elegantissima; blocks ASIC3 [APETx2]",sensitivity of the native ASIC currents to the toxin,[1],partial sensitivity
same,effect on the ASIC3 sustained current,ASIC3; sustained current,without affecting
same,IC50,"ASIC3; transient current, reversible block, read-out: IC50 for inhibition of the ASIC3 transient current",63 nM
same,effect on ASIC1b isoform,ASIC1b,does not have any effect
same,effect on the heteromer ASIC2a+3,heteromer ASIC2a+3,does not have any effect
